{"source": "patent US11903387B2", "about": "(priority 2016, dated 2024)", "key": {"[1]": {"system": "Pseudoperonospora cubensis", "experiment": "Test 2: control effect against cucumber downy mildew", "assay_type": "in vivo", "details": "for pest or weed control at 20 ppm: component (b) alone 20 ppm; for pest or weed control at 20 ppm / pest or weed control at 100 ppm / pest or weed control at 500 ppm: read-out: Test 2 Measured; for pest or weed control at 100 ppm: component (b) alone 100 ppm; for pest or weed control at 500 ppm: component (b) alone 500 ppm"}, "Phytophthora infestans": {"system": "Phytophthora infestans", "experiment": "whole plant or invertebrate", "assay_type": "in vivo", "details": "for pest or weed control at 20 ppm: read-out: Test 1 Measured, component (b) alone 20 ppm; for pest or weed control at 100 ppm: read-out: Test 1 Measured, component (b) alone 100 ppm; for pest or weed control at 500 ppm: read-out: Test 1 Measured, component (b) alone 500 ppm; for pest or weed control at 10 ppm: read-out: Test 1 preventive value, Measured, applied alone, 10 ppm; for pest or weed control at 50 ppm: read-out: Test 1 preventive value, Measured, applied alone, 50 ppm; for pest or weed control at 2 ppm: read-out: Test 1 preventive value, Measured, applied alone, 2 ppm; for Test 1 preventive value, Measured: applied alone"}, "[2]": {"details": "Phytophthora infestans, in Solanum lycopersicum"}, "[3]": {"details": "Pseudoperonospora cubensis, applied alone, 10 ppm, read-out: Test 2 preventive value, Measured"}, "[4]": {"details": "Pseudoperonospora cubensis, applied alone, 50 ppm, read-out: Test 2 preventive value, Measured"}, "[5]": {"details": "Pseudoperonospora cubensis, applied alone, 2 ppm, read-out: Test 2 preventive value, Measured"}, "[6]": {"details": "component (b) alone 0.4 ppm, average of three repeats"}, "[7]": {"details": "component (b) alone 2 ppm, average of three repeats"}, "[8]": {"details": "component (b) alone 10 ppm, average of three repeats"}}, "data": [{"molecule": "Cc1cccc2sc3nncn3c12", "note": "[Tricyclazole]", "values": [{"measurement": "pest or weed control at 20 ppm", "setting": "[1]; Pseudoperonospora cubensis", "value": 0, "unit": "%"}, {"measurement": "pest or weed control at 100 ppm", "setting": "[1]; Pseudoperonospora cubensis", "value": 0, "unit": "%"}, {"measurement": "pest or weed control at 500 ppm", "setting": "[1]; Pseudoperonospora cubensis", "value": 22.5, "unit": "%"}, {"measurement": "pest or weed control at 20 ppm", "setting": "Phytophthora infestans; [2]", "value": 0, "unit": "%"}, {"measurement": "pest or weed control at 100 ppm", "setting": "Phytophthora infestans; [2]", "value": 0, "unit": "%"}, {"measurement": "pest or weed control at 500 ppm", "setting": "Phytophthora infestans; [2]", "value": 70, "unit": "%"}]}, {"molecule": "COC(=O)NCc1cc(/C(C)=N/OCc2cccc(C)n2)ccc1Cl", "note": "[Pyribencarb]", "values": [{"measurement": "pest or weed control at 10 ppm", "setting": "[1]; [3]", "value": 0, "unit": "%"}, {"measurement": "pest or weed control at 50 ppm", "setting": "[1]; [4]", "value": 0, "unit": "%"}, {"measurement": "pest or weed control at 250 ppm", "setting": "[1]; Pseudoperonospora cubensis, applied alone, 250 ppm, read-out: Test 2 preventive value, Measured", "value": 10, "unit": "%"}, {"measurement": "pest or weed control at 10 ppm", "setting": "Phytophthora infestans; [2]", "value": 8.3, "unit": "%"}, {"measurement": "pest or weed control at 50 ppm", "setting": "Phytophthora infestans; [2]", "value": 11.7, "unit": "%"}, {"measurement": "pest or weed control at 250 ppm", "setting": "Phytophthora infestans; Phytophthora infestans, in Solanum lycopersicum, read-out: Test 1 preventive value, Measured, applied alone, 250 ppm", "value": 23.3, "unit": "%"}]}, {"molecule": "O=[N+]([O-])c1cc(C(F)(F)F)c(Cl)c([N+](=O)[O-])c1Nc1ncc(C(F)(F)F)cc1Cl", "note": "[Fluazinam]", "values": [{"measurement": "pest or weed control at 0.4 ppm", "setting": "[1]; Pseudoperonospora cubensis, applied alone, 0.4 ppm, read-out: Test 2 preventive value, Measured", "value": 0, "unit": "%"}, {"measurement": "pest or weed control at 2 ppm", "setting": "[1]; [5]", "value": 90.8, "unit": "%"}, {"measurement": "pest or weed control at 10 ppm", "setting": "[1]; [3]", "value": 100, "unit": "%"}, {"measurement": "pest or weed control at 2 ppm", "setting": "Phytophthora infestans; [2]", "value": 0, "unit": "%"}, {"measurement": "pest or weed control at 10 ppm", "setting": "Phytophthora infestans; [2]", "value": 16.7, "unit": "%"}, {"measurement": "pest or weed control at 50 ppm", "setting": "Phytophthora infestans; [2]", "value": 60.8, "unit": "%"}]}, {"molecule": "CCNc1nc(CC)c(C(=O)NC(C#N)c2cccs2)s1", "note": "(stereo not shown) [Ethaboxam]", "values": [{"measurement": "Test 2 Measured preventive value", "setting": "[1]; component (b) alone, 2 ppm", "value": 88.3}, {"measurement": "Test 2 Measured preventive value", "setting": "[1]; component (b) alone, 10 ppm", "value": 99.5}, {"measurement": "Test 2 Measured preventive value", "setting": "[1]; component (b) alone, 50 ppm", "value": 100}, {"measurement": "Test 1 Measured preventive value", "setting": "Phytophthora infestans; component (b) alone, 2 ppm", "value": 95}, {"measurement": "Test 1 Measured preventive value", "setting": "Phytophthora infestans; component (b) alone, 10 ppm", "value": 98.3}, {"measurement": "Test 1 Measured preventive value", "setting": "Phytophthora infestans; component (b) alone, 50 ppm", "value": 97.8}]}, {"molecule": "CCO[PH](=O)O", "note": "[Fosetyl-aluminum]", "values": [{"measurement": "Test 2 Measured", "setting": "[1]; component (b) alone 80 ppm", "value": 0}, {"measurement": "Test 2 Measured", "setting": "[1]; component (b) alone 400 ppm", "value": 22.5}, {"measurement": "Test 2 Measured", "setting": "[1]; component (b) alone 2000 ppm", "value": 49}, {"measurement": "Test 1 Measured", "setting": "Phytophthora infestans; component (b) alone 80 ppm", "value": 31.7}, {"measurement": "Test 1 Measured", "setting": "Phytophthora infestans; component (b) alone 400 ppm", "value": 85.7}]}, {"molecule": "COCC(=O)N(c1c(C)cccc1C)[C@H](C)C(=O)OC", "note": "[Metalaxyl-M]", "values": [{"measurement": "Test 2 Measured preventive value", "setting": "[1]; [6]", "value": 0}, {"measurement": "Test 2 Measured preventive value", "setting": "[1]; [7]", "value": 0}, {"measurement": "Test 2 Measured preventive value", "setting": "[1]; [8]", "value": 0}, {"measurement": "Test 2 Measured", "setting": "[1]; component (b) alone, 0.4 ppm", "value": 0}, {"measurement": "Test 2 Measured preventive value", "setting": "[1]; component (b) alone, 0.4 ppm", "value": 0}, {"measurement": "Test 2 Measured", "setting": "[1]; component (b) alone, 2 ppm", "value": 0}, {"measurement": "Test 2 Measured preventive value", "setting": "[1]; component (b) alone, 2 ppm", "value": 0}, {"measurement": "Test 2 Measured", "setting": "[1]; component (b) alone, 10 ppm", "value": 0}, {"measurement": "Test 2 Measured preventive value", "setting": "[1]; component (b) alone, 10 ppm", "value": 0}, {"measurement": "Test 1 Measured preventive value", "setting": "Phytophthora infestans; [6]", "value": 38.3}, {"measurement": "Test 1 Measured preventive value", "setting": "Phytophthora infestans; [7]", "value": 89.2}, {"measurement": "Test 1 Measured preventive value", "setting": "Phytophthora infestans; [8]", "value": 100.0}, {"measurement": "Test 1 Measured", "setting": "Phytophthora infestans; component (b) alone, 0.4 ppm", "value": 54.4}, {"measurement": "Test 1 Measured preventive value", "setting": "Phytophthora infestans; component (b) alone, 0.4 ppm", "value": 38.3}, {"measurement": "Test 1 Measured", "setting": "Phytophthora infestans; component (b) alone, 2 ppm", "value": 86.0}, {"measurement": "Test 1 Measured preventive value", "setting": "Phytophthora infestans; component (b) alone, 2 ppm", "value": 89.3}, {"measurement": "Test 1 Measured", "setting": "Phytophthora infestans; component (b) alone, 10 ppm", "value": 99.0}, {"measurement": "Test 1 Measured preventive value", "setting": "Phytophthora infestans; component (b) alone, 10 ppm", "value": 98.5}]}, {"molecule": "Mancozeb", "values": [{"measurement": "Test 2 Measured", "setting": "[1]; component (b) alone, 2 ppm", "value": 33}, {"measurement": "Test 2 Measured", "setting": "[1]; component (b) alone, 10 ppm", "value": 100}, {"measurement": "Test 2 Measured preventive value", "setting": "[1]; component (b) alone, 10 ppm", "value": 99}, {"measurement": "Test 2 Measured", "setting": "[1]; component (b) alone, 50 ppm", "value": 100}, {"measurement": "Test 2 Measured preventive value", "setting": "[1]; component (b) alone, 50 ppm", "value": 100}, {"measurement": "Test 1 Measured", "setting": "Phytophthora infestans; component (b) alone, 2 ppm", "value": 21.8}, {"measurement": "Test 1 Measured preventive value", "setting": "Phytophthora infestans; component (b) alone, 2 ppm", "value": 11.7}, {"measurement": "Test 1 Measured", "setting": "Phytophthora infestans; component (b) alone, 10 ppm", "value": 80.5}, {"measurement": "Test 1 Measured preventive value", "setting": "Phytophthora infestans; component (b) alone, 10 ppm", "value": 84.2}, {"measurement": "Test 1 Measured", "setting": "Phytophthora infestans; component (b) alone, 50 ppm", "value": 100.0}, {"measurement": "Test 1 Measured preventive value", "setting": "Phytophthora infestans; component (b) alone, 50 ppm", "value": 100.0}]}, {"molecule": "CO/N=C(/C(=O)OC)c1ccccc1COc1ccccc1C", "note": "[Kresoxim-methyl]", "values": [{"measurement": "pest or weed control at 2 ppm", "setting": "[1]; [5]", "value": 0, "unit": "%"}, {"measurement": "pest or weed control at 10 ppm", "setting": "[1]; [3]", "value": 7.5, "unit": "%"}, {"measurement": "pest or weed control at 50 ppm", "setting": "[1]; [4]", "value": 2.5, "unit": "%"}, {"measurement": "pest or weed control at 2 ppm", "setting": "Phytophthora infestans; [2]", "value": 50, "unit": "%"}, {"measurement": "pest or weed control at 10 ppm", "setting": "Phytophthora infestans; [2]", "value": 90.7, "unit": "%"}, {"measurement": "pest or weed control at 50 ppm", "setting": "Phytophthora infestans; [2]", "value": 99.8, "unit": "%"}]}, {"molecule": "CC(C)(C)C(O)(CCc1ccc(Cl)cc1)Cn1cncn1", "note": "(stereo not shown) [Tebuconazole]", "values": [{"measurement": "pest or weed control at 20 ppm", "setting": "[1]; Pseudoperonospora cubensis", "value": 0, "unit": "%"}, {"measurement": "pest or weed control at 100 ppm", "setting": "[1]; Pseudoperonospora cubensis", "value": 10, "unit": "%"}, {"measurement": "pest or weed control at 500 ppm", "setting": "[1]; Pseudoperonospora cubensis", "value": 97, "unit": "%"}, {"measurement": "pest or weed control at 20 ppm", "setting": "Phytophthora infestans; [2]", "value": 0, "unit": "%"}, {"measurement": "pest or weed control at 100 ppm", "setting": "Phytophthora infestans; [2]", "value": 0, "unit": "%"}, {"measurement": "pest or weed control at 500 ppm", "setting": "Phytophthora infestans; [2]", "value": 16.7, "unit": "%"}]}, {"molecule": "CO/C=C(/C(=O)OC)c1ccccc1Oc1cc(Oc2ccccc2C#N)ncn1", "note": "[Azoxystrobin]", "values": [{"measurement": "Test 2 preventive value, Measured", "setting": "[1]; applied alone, 0.4 ppm", "value": 0}, {"measurement": "Test 2 preventive value, Measured", "setting": "[1]; applied alone, 2 ppm", "value": 0}, {"measurement": "Test 2 preventive value, Measured", "setting": "[1]; applied alone, 10 ppm", "value": 0}, {"measurement": "Test 1 preventive value, Measured", "setting": "Phytophthora infestans; 0.4 ppm", "value": 5.0}, {"measurement": "Test 1 preventive value, Measured", "setting": "Phytophthora infestans; 2 ppm", "value": 66.7}, {"measurement": "Test 1 preventive value, Measured", "setting": "Phytophthora infestans; 10 ppm", "value": 96.2}]}]}
